The values that follow come from US20070060591A1, “Chemokine receptor binding heterocyclic compounds” (priority 1999, published 2007).

The CC50 is the concentration at which the toxic effect on the cells reaches its halfway point. A high value points to lower toxicity to the cells. The term inhibition denotes the change of the read-out against control, counted positive when it falls. In general, IC50 refers to the concentration that gives 50% inhibition. The low end stands for higher potency, the high end for lower potency.

In brackets after ≈: the same amount, converted by molar mass. Read-outs that look alike come from different tables or passages of the source. Bounds are passed on as bounds.

In data set [1] the test system is HIV-2 (LAV-2 ROD). Briefly: Anti-HIV-2 screen by the MTT method in MT-4 cells. To be noted: 100 CCID50, 5 days. The class given is cell-based. The protocol: (§1) The compounds of the invention were tested in a screen by the MTT method (J. Virol. Methods […] (1988)). MT-4 cells (2.5×10^4/well) were challenged with HIV-1 (HTLV-IIIB) or HIV-2 (LAV-2 ROD) at a concentration of 100 CCID50 and incubated in the presence of various concentrations of the test compounds, which were added immediately after challenge with the virus. After 5 days culture at 37° C. in a CO2 incubator, the number of viable cells was assessed by the MTT (tetrazolium) method. […] The potential therapeutic usefulness was assessed by calculating a Selectivity Index (SI) corresponding to the ratio of CC50 to EC50.
On the technique in general: Tetrazolium dyes change colour on reduction, which living cells bring about.

The test system of data set [2] is HIV-1 (HTLV-IIIB). The data set can be described thus: microbe, parasite or virus in culture. The class given is cell-based. To be noted: MT-4 cells; 100 CCID50; 5 days; MTT. The protocol:
as §1

The subject of data set [3] is MT-4 cells. Briefly: in vitro. The data set is classed as cell-based. How it is done:
as §1

Data set [4] relates to HIV-1 BaL. The data set can be described thus: Inhibition of infection of U87.CD4.CCR5 by HIV-1 BaL. The class given is cell-based. To be noted: U87.CD4.CCR5 cells.
For data set [5], the target named is T1, CXCR-4 (Homo sapiens, UniProt P61073).
T1 construct: endogenous in cells; host or cells: SUP-T1 cells
T1 sequence (P61073 whole entry): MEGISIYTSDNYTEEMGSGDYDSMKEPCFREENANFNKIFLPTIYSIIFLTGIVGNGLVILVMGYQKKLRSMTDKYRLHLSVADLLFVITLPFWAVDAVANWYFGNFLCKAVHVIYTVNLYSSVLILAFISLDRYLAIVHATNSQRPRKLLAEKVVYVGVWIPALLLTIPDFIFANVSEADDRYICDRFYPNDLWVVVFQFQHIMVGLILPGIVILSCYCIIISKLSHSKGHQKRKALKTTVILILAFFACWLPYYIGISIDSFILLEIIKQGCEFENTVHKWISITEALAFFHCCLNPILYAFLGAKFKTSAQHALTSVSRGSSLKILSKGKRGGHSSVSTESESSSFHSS
The data set can be described thus: Inhibition of signal transduction (Ca2+ flux) induced by SDF-1α binding to CXCR-4 on SUP-T1 cells. The class given is cell-based. To be noted: 1 μg/ml, SDF-1α induced, read-out: % Inhibition of Ca2+ flux (conc). On the technique in general: A change in cytosolic calcium serves as a functional read-out for many receptors and channels.

Data set [6] deals with T1, CXCR-4. The data set can be described thus: Inhibition of mAb 12G5 binding to CXCR-4 in SUP-T1 cells.
For data set [7] the following is noted: crosslinker bond, 14-membered ring, Cs2CO3, DMF.

With `c1nc(CCNCc2ccc(CN3CCCNCCNCCCNCC3)cc2)c[nH]1` [AMD3543, N-[1,4,8,11-Tetraazacyclotetradecanyl-1,4-phenylenebis(methylene)]-4-(amino-ethyl)imidazole], the “EC50 HIV-2” value in data set [1] turned out to be 1.0 µg/mL (≈ 2.42 µM). Moreover, the “EC50 HIV-1 (IIIB)” value in data set [2] was 0.2 µg/mL (≈ 0.484 µM). Besides, the CC50 in data set [3] was 239 µg/mL (≈ 578 µM).

In the case of `Clc1ccc(CN2CCCNCCNCCCNCC2)cn1` [AMD3454, 1-[2-Chloropyrid-5-yl(methylene)]-1,4,8,11-tetraazacyclotetradecane], the “IC50 against infection of U87.CD4.CCR5 by HIV-1 BaL” value (“IC50 against infection” for short) in data set [4] was 32.3 µg/mL.

As to `c1ccc(CNCc2ccc(CN3CCNCCc4cccc(n4)CCNCC3)cc2)nc1` [AMD7050, N-[7-(4,7,10,17-Tetraazabicyclo[13.3.1]heptadeca-1(17),13,15-trienyl)-1,4-phenylenebis(methylene)]-2-(aminomethyl)pyridine], the inhibition at 1 µg/mL in data set [5] is 100%. This compound also had an IC50 in data set [6] of 2.25 nM.

Regarding `c1ncc2ncn(Cc3ccc(CN4CCCNCCNCCCNCC4)cc3)c2n1` [AMD3472, N-[1,4,8,11-Tetraazacyclotetradecanyl-1,4-phenylenebis(methylene)]-purine], the “IC50 against infection” value in data set [4] was found to be 45.4 µg/mL.

Turning to `c1ccc(CNCc2ccc(CN3CCNCCNCCc4cccc(n4)CC3)cc2)nc1` [AMD7063, N-[4-[4,7,10,17-Tetraazabicyclo[13.3.1]heptadeca-1(17),13,15-trienyl]-1,4-phenylenebis(methylene)]-2-(aminomethyl)pyridine], the inhibition at 1 µg/mL in data set [5] worked out at 100%. In data set [6], this compound had an IC50 of 20.2 nM.

As to `Nc1ccccc1CNCc1ccc(CN2CCCNCCNCCCNCC2)cc1` [AMD3517, N-[1,4,8,11-Tetraazacyclotetradecanyl-1,4-phenylenebis(methylene)]-2-amino-benzylamine], in data set [1], the “EC50 HIV-2” value amounted to 10.6 µg/mL (≈ 25 µM). For the same compound, the “EC50 HIV-1 (IIIB)” value in data set [2] turned out to be 0.8 µg/mL (≈ 1.88 µM). The CC50 in data set [3] came to 153 µg/mL (≈ 360 µM).

As for `CCOP(=O)(OCC)N1CCN(S(=O)(=O)c2ccccc2[N+](=O)[O-])CCCC(F)(F)CCCN(S(=O)(=O)c2ccccc2[N+](=O)[O-])CC1`, in data set [7] (from bis-[2-(2-nitrobenzenesulfonylamino)-ethyl]-phosphoramidic acid diethyl ester + 1,7-bis(toluene-4-sulfonic acid)-4,4-difluoro-heptyl-ester, 15.4 mM, 85.0 °C), the ring closure, isolated yield turned out to be 19%.

For `c1ccc(CNCc2ccc(CN3CCNCCCCCCCNCC3)cc2)nc1` [AMD7049, N-[4-(1,4,7-Triazacyclotetra-decanyl)-1,4-phenylenebis(methylene)]-2-(aminomethyl)pyridine], the inhibition at 1 µg/mL in data set [5] stood at 100%. The compound also showed an IC50 in data set [6] of 127 nM.

For `c1ccc(CCNCc2ccc(CN3CCCNCCNCCCNCC3)cc2)nc1` [AMD3497, N-[1,4,8,11-Tetraazacyclotetradecanyl-1,4-phenylenebis(methylene)]-2-(amino-ethyl)pyridine], in data set [1], the “EC50 HIV-2” value came out at 3.8 µg/mL (≈ 8.95 µM). Besides, the “EC50 HIV-1 (IIIB)” value in data set [2] is 1.8 µg/mL (≈ 4.24 µM). In data set [3], this compound returned a CC50 greater than 250 µg/mL.

Turning to `c1ccc(CNCc2ccc(CN3CCCNCCNCCCNCC3)cc2)cc1` [AMD3529, N-[1,4,8,11-Tetraazacyclotetradecanyl-1,4-phenylenebis(methylene)]-benzylamine], the “EC50 HIV-2” value in data set [1] is 2.6 µg/mL (≈ 6.35 µM). The “EC50 HIV-1 (IIIB)” value in data set [2] worked out at 0.4 µg/mL (≈ 0.977 µM). Besides, the CC50 in data set [3] is 130 µg/mL (≈ 317 µM).

Take `c1ccc(CNCc2ccc(CN3CCCCCCCNCCNCC3)cc2)nc1` [AMD7059, N-[1-(1,4,7-Triazacyclotetra-decanyl)-1,4-phenylenebis(methylene)]-2-(aminomethyl)pyridine]: the inhibition at 1 µg/mL in data set [5] was 36%. The same compound yielded a half-inhibitory concentration (IC50) in data set [6] greater than 2440 nM.

As to `CN(Cc1ccc(CN2CCCNCCNCCCNCC2)cc1)Cc1ccccn1` [AMD3538, N-[1,4,8,11-Tetraazacyclotetradecanyl-1,4-phenylenebis(methylene)]-N-methyl-2-(aminomethyl)pyridine], the “EC50 HIV-2” value in data set [1] stood at 6.7 µg/mL (≈ 15.8 µM). For the same compound, the “EC50 HIV-1 (IIIB)” value in data set [2] is 0.1 µg/mL (≈ 0.235 µM). In addition, the CC50 in data set [3] amounted to 209 µg/mL (≈ 492 µM).

For `Clc1cc(CN2CCCNCCNCCCNCC2)cc(Cl)n1` [AMD3451, 1-[2,6-Dichloropyrid-4-yl(methylene)]-1,4,8,11-tetraazacyclotetradecane], the “IC50 against infection” value in data set [4] stood at 8.9 µg/mL.

Regarding “bis(3-nitrobenzenesulfonylaminopropyl)ether? + N-(diethoxyphosphoryl)-O,O′-bis(2-methylsulfonyl)diethanolamine”, the ring closure, isolated yield in data set [7] (the molecule shown is the open-chain precursor, 18.0 mM, 80.0 °C) worked out at 55%.

For `CCOP(=O)(OCC)N1CCN(S(=O)(=O)c2ccccc2[N+](=O)[O-])CCCC(F)CCCN(S(=O)(=O)c2ccccc2[N+](=O)[O-])CC1`, the ring closure, isolated yield in data set [7] (from bis-[2-(2-nitro-benzenesulfonylamino)-ethyl]-phosphoramidic acid diethyl ester + 1,7-bis(toluene-4-sulfonic acid)-4-fluoro-heptyl-ester, 15.9 mM, 85.0 °C) turned out to be 55%.

On to `c1ccc(CNCc2ccc(CN3CCNCCc4cccc(c4)CCNCC3)cc2)nc1` [AMD7051, N-[7-(4,7,10-Triazabicyclo[13.3.1]heptadeca-1(17),13,15-trienyl)-1,4-phenylenebis(methylene)]-2-(aminomethyl)pyridine], for which the inhibition at 1 µg/mL in data set [5] was found to be 100%. In data set [6], this compound gave an IC50 of 15.8 nM.

For `SCCNCc1ccc(CN2CCCNCCNCCCNCC2)cc1` [AMD3530, N-[1,4,8,11-Tetraazacyclotetradecanyl-1,4-phenylenebis(methylene)]-2-(amino-ethyl)mercaptan], in data set [1], the “EC50 HIV-2” value came to 2.0 µg/mL (≈ 5.27 µM). Besides, the “EC50 HIV-1 (IIIB)” value in data set [2] turned out to be 0.5 µg/mL (≈ 1.32 µM). In data set [3], this compound had a CC50 of 175 µg/mL (≈ 461 µM).

Consider `c1ccc(N2CCN(Cc3ccc(CN4CCCNCCNCCCNCC4)cc3)CC2)cc1` [AMD3526, 1-[1,4,8,11-Tetraazacyclotetradecanyl-1,4-phenylenebis(methylene)]-4-phenylpiperazine], for which the “IC50 against infection” value in data set [4] came to 82 µg/mL.

For `c1csc(CNCc2ccc(CN3CCCNCCNCCCNCC3)cc2)c1` [AMD3516, N-[1,4,8,11-Tetraazacyclotetradecanyl-1,4-phenylenebis(methylene)]-2-(amino-methyl)thiophene], the “EC50 HIV-2” value in data set [1] was determined as 9.8 µg/mL (≈ 23.6 µM). In addition, in data set [2], the “EC50 HIV-1 (IIIB)” value worked out at 0.7 µg/mL (≈ 1.68 µM). In addition, the CC50 in data set [3] was determined as 158 µg/mL (≈ 380 µM).

For `Cc1cnc(CNCc2ccc(CN3CCCNCCNCCCNCC3)cc2)cn1` [AMD3498, N-[1,4,8,11-Tetraazacyclotetradecanyl-1,4-phenylenebis(methylene)]-(2-amino-methyl-5-methyl)pyrazine], in data set [1], the “EC50 HIV-2” value turned out to be 7.1 µg/mL (≈ 16.7 µM). Further, the “EC50 HIV-1 (IIIB)” value in data set [2] turned out to be 0.2 µg/mL (≈ 0.47 µM). Also, the CC50 in data set [3] was greater than 250 µg/mL.

Regarding “bis(3-nitrobenzenesulfonylaminopropyl)ether + Methanesulfonic acid, 5-methanesulfonyloxy-3-(4-{[( [...]”, the ring closure, isolated yield in data set [7] (the molecule shown is the open-chain precursor, 6.3 mM, 80.0 °C) worked out at 51%.

Turning to `c1ccc(CNCc2ccc(CN3CCNCCNCCc4cccc(c4)CC3)cc2)nc1` [AMD7058, N-[4-[4,7,10-Triazabicyclo[13.3.1]heptadeca-1(17),13,15-trienyl]-1,4-phenylenebis(methylene)]-2-(aminomethyl)pyridine], the inhibition at 1 µg/mL in data set [5] was determined as 44%. The IC50 in data set [6] is greater than 2250 nM.

Take SDF-1α: in data set [6], the “Inhibition of mAb 12G5 binding IC50” value was 0.27 µg/mL.

Consider `Nc1ccc(CNCc2ccc(CN3CCCNCCNCCCNCC3)cc2)cc1` [AMD3544, N-[1,4,8,11-Tetraazacyclotetradecanyl-1,4-Ihenylenebis(methylene)]-4-amino-benzylamine], for which the “EC50 HIV-2” value in data set [1] was determined as 3.7 µg/mL (≈ 8.71 µM). Besides, the “EC50 HIV-1 (IIIB)” value in data set [2] is 0.7 µg/mL (≈ 1.65 µM). The CC50 in data set [3] is 222 µg/mL (≈ 523 µM).

With `c1cc(CNCc2ccc(CN3CCCNCCNCCCNCC3)cc2)ccn1` [AMD3500], the “EC50 HIV-2” value in data set [1] is 10.3 µg/mL (≈ 25.1 µM). Moreover, the “EC50 HIV-1 (IIIB)” value in data set [2] was determined as 0.6 µg/mL (≈ 1.46 µM). This compound registered a CC50 in data set [3] greater than 250 µg/mL.
